32 compounds from US12194027B2, “Small molecule inhibitors of GPCR GPR68 and related receptors for treating cancer, glioblastoma, and other indications” (UNIVERSITY OF MARYLAND, BALTIMORE, priority 2019, dated 2025) can be followed below.

Each structure is given as a SMILES string.

Sequence of GPR68/OGR1 (Q15743 whole entry): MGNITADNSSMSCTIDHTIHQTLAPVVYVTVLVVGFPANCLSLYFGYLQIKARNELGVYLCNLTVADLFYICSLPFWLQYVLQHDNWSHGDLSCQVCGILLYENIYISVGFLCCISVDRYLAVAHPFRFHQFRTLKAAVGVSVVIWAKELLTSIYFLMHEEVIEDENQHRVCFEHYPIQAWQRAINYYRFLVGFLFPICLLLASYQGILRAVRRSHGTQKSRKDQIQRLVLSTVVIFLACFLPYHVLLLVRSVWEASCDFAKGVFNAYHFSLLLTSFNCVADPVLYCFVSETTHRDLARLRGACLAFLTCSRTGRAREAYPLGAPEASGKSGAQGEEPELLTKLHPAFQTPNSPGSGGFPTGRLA

This experiment concerns the target GPR68/OGR1 (Homo sapiens (Human), UniProt Q15743). The experiment is described as follows: inhibition of GPR68/OGR1 in CHEM1-OGR1 cells, Fluo-8 calcium response to acidified media. Format: cell-based. Particulars: acidified media pH 6.4, Fluo-8. The procedure:
Briefly, the methods were: On the day before the assay 20,000 cells per well of CHEM1-OGR1 cells were plated in 10% DMEM containing 10% FBS and 1% Pen/Strep into a 96 well plate. After 24 hours media was removed and cells were stained with 80 uL Fluo-8 calcium indicator dye according to manufacturer's protocol. After staining cells were treated with 20 uL of 4× concentration of test compounds. Using kinetic imaging in the Lionheart HCS fluorescence intensity was continuously measure at 10 frames per second, for 5 seconds before 100 μL of acidified media was added to the well resulting in a pH of 6.4. A ratio of fluorescence intensities prior to addition and at peak were calculated and averaged. The resulting data were platted and using a 4 parameter logistic regression EC50 for each test compound was determined.
As for `O=C1Nc2ccc(Cl)cc2C12NN=C(c1ccccc1)S2` (centres unmarked) [OGM7], the concentration giving a half-maximal response (EC50) (usually the concentration that produces a half-maximal response) came out at 1620 nM. Turning to `O=C1Nc2ccccc2C12NN=C(c1ccc(Cl)cc1)S2` (centres unmarked) [OGM13], the EC50 is below 400 nM. Next, `COc1ccc(C2=NNC3(S2)C(=O)Nc2ccc(OC)cc23)cc1` (centres unmarked) [OGM17]: 900 nM; `Cc1ccc(C2=NNC3(S2)C(=O)Nc2ccc(F)cc23)cc1` (centres unmarked) [OGM18]: 985 nM. As for `O=C1Nc2ccc(Cl)cc2C12NN=C(c1ccc(Cl)cc1)S2` (centres unmarked) [OGM19], the figure is below 400 nM. As to `O=C1Nc2ccc(Cl)cc2C12NN=C(c1ccc(F)cc1)S2` (centres unmarked) [OGM21], the EC50 was 796 nM. Consider `COc1ccc2c(c1)C1(NN=C(c3ccc(Cl)cc3)S1)C(=O)N2` (centres unmarked) [OGM22], for which the EC50 was below 400 nM. Next, `O=C1Nc2ccc(Cl)cc2C12NN=C(c1cccc3ccccc13)S2` (centres unmarked) [OGM23]: 5040 nM. Take `COc1ccc2cc(C3=NNC4(S3)C(=O)Nc3ccc(Cl)cc34)ccc2c1` (centres unmarked) [OGM24]: the EC50 came out at 45900 nM. As to `COc1ccc2cc(C3=NNC4(S3)C(=O)Nc3ccc(F)cc34)ccc2c1` (centres unmarked) [OGM26], the EC50 was 708 nM. Consider `CCc1ccc2c(c1)C1(NN=C(c3ccc4cc(OC)ccc4c3)S1)C(=O)N2` (centres unmarked) [OGM27], for which the EC50 is above 10000 nM.

For `CCc1ccc2c(c1)C1(NN=C(c3ccc(OC)cc3)S1)C(=O)N2` (centres unmarked) [OGM28], the EC50 is above 10000 nM. Regarding `COc1ccc(C2=NNC3(S2)C(=O)N(CC=C(C)C)c2ccc(Cl)cc23)cc1` (centres unmarked) [OGM29], the EC50 is above 10000 nM.

In the case of `COc1ccc(C2=NNC3(S2)C(=O)N(CC=C(C)C)c2ccccc23)cc1` (centres unmarked) [OGM30], the 50% effective concentration (EC50) is above 10000 nM.

As to `CC(C)=CCN1C(=O)C2(NN=C(c3cccc4ccccc34)S2)c2cc(Cl)ccc21` (centres unmarked) [OGM32], the EC50 was above 10000 nM. `CC(C)=CCN1C(=O)C2(NN=C(c3cccc4ccccc34)S2)c2ccccc21` (centres unmarked) [OGM33]: the EC50 is above 10000 nM. Regarding `COc1ccc2cc(C3=NNC4(S3)C(=O)N(CC=C(C)C)c3ccccc34)ccc2c1` (centres unmarked) [OGM34], the EC50 was above 10000 nM. On to `COc1ccc2cc(C3=NNC4(S3)C(=O)N(CC=C(C)C)c3ccc(Cl)cc34)ccc2c1` (centres unmarked) [OGM35], for which the EC50 is above 10000 nM.

With `COc1ccc2c(c1)C1(NN=C(c3cccc4cccnc34)S1)C(=O)N2` (centres unmarked) [OGM38], the concentration for a half-maximal effect (EC50) came to 3690 nM.

Regarding `COc1ccc2c(c1)C1(NN=C(c3ccc4ncccc4c3)S1)C(=O)N2` (centres unmarked) [OGM43], the EC50 is above 10000 nM.

For `COC(=O)c1ccc2c(c1)C1(NN=C(c3cccc4cccnc34)S1)C(=O)N2` (centres unmarked) [OGM44], the EC50 was 2920 nM. Turning to `O=C1Nc2ccc(F)cc2C12NN=C(c1ccc3ncccc3c1)S2` (centres unmarked) [OGM45, 5-fluoro-5′-(quinolin-6-yl)-1,2-dihydro-3′H-spiro[indole-3,2′-[1,3,4]thiadiazol]-2-one], the EC50 is 10000 nM.

On to `COC(=O)c1ccc2c(c1)C1(NN=C(c3cccnc3)S1)C(=O)N2` (centres unmarked) [OGM47], for which the EC50 is above 10000 nM. For the compound `CCc1ccc2c(c1)C1(NN=C(c3cccnc3)S1)C(=O)N2` (centres unmarked) [OGM48], the EC50 was above 10000 nM. `CCc1ccc2c(c1)C1(NN=C(c3ccnc(OC)c3)S1)C(=O)N2` (centres unmarked) [OGM49, 5-ethyl-5′-(2-methoxypyridin-4-yl)-1,2-dihydro-3′H-spiro[indole-3,2′-[1,3,4]thiadiazol]-2-one: 2,2,2-trifluoroacetic Acid]: the EC50 is 1090 nM. With `COc1ccc2c(c1)C1(NN=C(c3cccnc3)S1)C(=O)N2` (centres unmarked) [OGM50], the EC50 turned out to be 1860 nM.

Take `COc1ccc2c(c1)NC(=O)C21NN=C(c2ccnc(OC)c2)S1` (centres unmarked) [OGM51]: the EC50 came to 1440 nM. For the compound `NS(=O)(=O)c1ccc2c(c1)C1(NN=C(c3ccccc3)S1)C(=O)N2` (centres unmarked) [OGM52], the EC50 was 822 nM. Turning to `NS(=O)(=O)c1ccc2c(c1)C1(NN=C(c3cccnc3)S1)C(=O)N2` (centres unmarked) [OGM53], the EC50 turned out to be 900 nM.

Turning to `COc1cc(C2=NNC3(S2)C(=O)Nc2ccc(F)cc23)ccn1` (centres unmarked) [OGM57], the EC50 was determined as 805 nM. As for `CCc1ccc2c(c1)C1(NN=C(c3cccc4cccnc34)S1)C(=O)N2` (centres unmarked) [OGM58], the figure is below 400 nM; as for `CCc1ccc2c(c1)C1(NN=C(c3ccncc3)S1)C(=O)N2` (centres unmarked) [OGM60], below 400 nM.
